# Results taken from patent US9421269B2, “Saponin nano micelle, preparing method, application and pharmaceutical composition thereof” (FUJIAN SOUTH PHARMACEUTICAL CO., LTD, priority 2013, dated 2016).
# Assay: appearance of drug-loading micelle solution versus contrast sample
# Format: physicochemical
# Details: in 10 ml absolute ethanol
compound,measurement,value
Oc1ccc(C=Cc2cc(O)cc(O)c2)cc1 [resveratrol],appearance of solution,murky
